The numbers were not newly measured in patent US20120115828A1 (APEX LABORATORIES PRIVATE LIMITED, priority 2009, published 2012), which cites them from elsewhere.

`CC(=O)OCC(=O)[C@@]1(O)CC[C@H]2[C@@H]3CCC4=CC(=O)CC[C@]4(C)[C@H]3[C@@H](O)C[C@@]21C` [Hydrocortisone Acetate]: the Solubility in chloroform entry is reported as “slightly soluble” and the Solubility in water entry is “insoluble”. The Solubility in alcohol entry (alcohol) is “slightly soluble”.
Regarding `Clc1ccc(COC(Cn2ccnc2)c2ccc(Cl)cc2Cl)c(Cl)c1` (centres unmarked) [Miconazole Nitrate, 1-[2-(2,4-Dichlorophenyl)-2-[(2,4-dichlorophenyl)methoxy]ethyl]-1H-imidazole], the Solubility in chloroform entry is “slightly soluble” and the Solubility in water result is “very slightly soluble”. Besides, where the note is “ethanol (95%)”, the “Solubility in ethanol (95%)” value was “slightly soluble”. Besides, the Solubility in ether result (ether) is “very slightly soluble”. Besides, the Solubility in methanol entry (methanol) was “freely soluble”.
